Results published in patent publication US9833497B2, “Human originated EGF domain proteins and use of the same” (CHENGDU SOURCEBIO LIMITED-LIABILITY COMPANY, priority 2013, dated 2017).

Assays:
Type in all cases: cell-based
E. coli DH5α = experiment: Antibacterial activity: MIC and growth curve against E. coli DH5α in 96-well plate; conditions: minimal inhibitory concentration against E. coli DH5α; 96-well plate, 5×10^5 CFU/mL, 37° C., judged after 8 h
How it was run: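 Log-phase bacteria (OD600 ~0.5) resuspended in LB at 5×10^5 CFU/mL, exposed to recombinant protein at 50, 25, 12.5 μg/mL final in triplicate, 37 °C shaking at 175 rpm. OD600 read every 30 min; MIC is lowest concentration showing no growth.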

E. coli BL21 = experiment: MIC against Gram-negative bacteria: E. coli BL21; conditions: E. coli BL21, 5×10^5 CFU/mL
How it was run: (§1)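 Read-out is absence of bacterial growth, with MIC set at the lowest recombinant protein concentration achieving it. Bacteria, pre-grown in LB to McFarland 0.5 and resuspended, were exposed at 5×10^5 CFU/mL to two-fold diluted human EGF domain proteins in triplicate at 37° C, 175 rpm.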

Pseudomonas aeruginosa = experiment: MIC against Gram-negative bacteria: Pseudomonas aeruginosa; conditions: 5×10^5 CFU/mL; for MIC against P. aeruginosa: Pseudomonas aeruginosa
How it was run: as §1

Klebsiella pneumonia = experiment: MIC against Gram-negative bacteria: Klebsiella pneumonia; conditions: 5×10^5 CFU/mL; for MIC against K. pneumonia: Klebsiella pneumonia
How it was run: as §1

Enterobacter cloacae = experiment: MIC against Gram-negative bacteria: Enterobacter cloacae; conditions: 5×10^5 CFU/mL; for MIC against E. cloacae: Enterobacter cloacae
How it was run: as §1

Aeromonas hydrophila = experiment: MIC against Gram-negative bacteria: Aeromonas hydrophila; conditions: 5×10^5 CFU/mL; for MIC against A. hydrophila: Aeromonas hydrophila
How it was run: as §1

Citrobacter diversus = experiment: MIC against Gram-negative bacteria: Citrobacter diversus; conditions: 5×10^5 CFU/mL; for MIC against C. diversus: Citrobacter diversus
How it was run: as §1

Moraxella catarrhalis = experiment: MIC against Gram-negative bacteria: Moraxella catarrhalis; conditions: 5×10^5 CFU/mL; for MIC against M. catarrhalis: Moraxella catarrhalis
How it was run: as §1

Proteus mirabilis = experiment: MIC against Gram-negative bacteria: Proteus mirabilis; conditions: 5×10^5 CFU/mL; for MIC against P. mirabilis: Proteus mirabilis
How it was run: as §1

Proteus vulgaris = experiment: MIC against Gram-negative bacteria: Proteus vulgaris; conditions: 5×10^5 CFU/mL; for MIC against P. vulgaris: Proteus vulgaris
How it was run: as §1

Serratia marcescens = experiment: MIC against Gram-negative bacteria: Serratia marcescens; conditions: 5×10^5 CFU/mL; for MIC against S. marcescens: Serratia marcescens
How it was run: as §1

[1] = P. aeruginosa, 10 h cultivation at 37° C.
[2] = K. pneumonia, 10 h cultivation at 37° C.
[3] = E. cloacae, 10 h cultivation at 37° C.
[4] = A. hydrophila, 10 h cultivation at 37° C.
[5] = C. diversus, 10 h cultivation at 37° C.
[6] = M. catarrhalis, 10 h cultivation at 37° C.
[7] = P. mirabilis, 10 h cultivation at 37° C.
[8] = P. vulgaris, 10 h cultivation at 37° C.
[9] = S. marcescens, 10 h cultivation at 37° C.

Substance | MIC (E. coli DH5α) [µg/mL] | MIC against E. coli BL21 (E. coli BL21; 10 h cultivation at 37° C.) [µg/mL] | MIC against P. aeruginosa (Pseudomonas aeruginosa; 10 h cultivation at 37° C.) [µg/mL] | MIC against K. pneumonia (Klebsiella pneumonia; 10 h cultivation at 37° C.) [µg/mL] | MIC against E. cloacae (Enterobacter cloacae; 10 h cultivation at 37° C.) [µg/mL] | MIC against A. hydrophila (Aeromonas hydrophila; 10 h cultivation at 37° C.) [µg/mL] | MIC against C. diversus (Citrobacter diversus; 10 h cultivation at 37° C.) [µg/mL] | MIC against M. catarrhalis (Moraxella catarrhalis; 10 h cultivation at 37° C.) [µg/mL] | MIC against P. mirabilis (Proteus mirabilis; 10 h cultivation at 37° C.) [µg/mL] | MIC against P. vulgaris (Proteus vulgaris; 10 h cultivation at 37° C.) [µg/mL] | MIC against S. marcescens (Serratia marcescens; 10 h cultivation at 37° C.) [µg/mL] | also measured
PRT1412 (RASCPVLCSGNGQYMKGRCLCHSGWKGAECD; listed as Homo sapiens) | 25 | 50 | 25 | 12.5 | 25 | 50 | 25 | 12.5 | 25 | 50 | 25 | –
PRT811 (FGKNCSFSCSCQNGGTCDSVTGACRCPPGVSGTNCE; listed as Homo sapiens) | 12.5 | – | – | – | – | – | – | – | – | – | – | MIC (μg/mL) E. coli BL21 (E. coli BL21; 10 h cultivation at 37° C.): 25 µg/mL; MIC (μg/mL) P. aeruginosa (Pseudomonas aeruginosa; [1]): 12.5 µg/mL; MIC (μg/mL) K. pneumonia (Klebsiella pneumonia; [2]): 12.5 µg/mL; MIC (μg/mL) E. cloacae (Enterobacter cloacae; [3]): 12.5 µg/mL; MIC (μg/mL) A. hydrophila (Aeromonas hydrophila; [4]): 12.5 µg/mL; MIC (μg/mL) C. diversus (Citrobacter diversus; [5]): 12.5 µg/mL; MIC (μg/mL) M. catarrhalis (Moraxella catarrhalis; [6]): 12.5 µg/mL; MIC (μg/mL) P. mirabilis (Proteus mirabilis; [7]): 25 µg/mL; MIC (μg/mL) P. vulgaris (Proteus vulgaris; [8]): 25 µg/mL; MIC (μg/mL) S. marcescens (Serratia marcescens; [9]): 25 µg/mL
PRT1425 (DIDECENGGFCSGVCHNLPGTFECICGPDSALARHIGTDCD; listed as Homo sapiens) | 12.5 | 50 | 12.5 | 50 | 25 | 12.5 | 50 | 12.5 | 12.5 | 12.5 | 12.5 | –
PRT1318 (DCTQCPGGFSNPCYGKGNCSDGIQGNGACLCFPDYKGIACH; listed as Homo sapiens) | 25 | – | – | – | – | – | – | – | – | – | – | MIC against E. coli BL21 (E. coli BL21; 96-well plate, 37° C., 10 h): 12.5 µg/mL; MIC against P. aeruginosa (Pseudomonas aeruginosa; 96-well plate, 37° C., 10 h): 25 µg/mL; MIC against K. pneumonia (Klebsiella pneumonia; 96-well plate, 37° C., 10 h): 50 µg/mL; MIC against E. cloacae (Enterobacter cloacae; 96-well plate, 37° C., 10 h): 25 µg/mL; MIC against A. hydrophila (Aeromonas hydrophila; 96-well plate, 37° C., 10 h): 12.5 µg/mL; MIC against C. diversus (Citrobacter diversus; 96-well plate, 37° C., 10 h): 50 µg/mL; MIC against M. catarrhalis (Moraxella catarrhalis; 96-well plate, 37° C., 10 h): 12.5 µg/mL; MIC against P. mirabilis (Proteus mirabilis; 96-well plate, 37° C., 10 h): 25 µg/mL; MIC against P. vulgaris (Proteus vulgaris; 96-well plate, 37° C., 10 h): 50 µg/mL; MIC against S. marcescens (Serratia marcescens; 96-well plate, 37° C., 10 h): 25 µg/mL
PRT1387 (IMDDCSTNCNGNGECISGHCHCFPGFLGPDCA; listed as Homo sapiens) | 12.5 | 12.5 | 50 | 25 | 12.5 | 50 | 25 | 12.5 | 25 | 12.5 | 25 | –
PRT412 (LNDRCRGGGPCKQQCRDTGDEVVCSCFVGYQLLSDGVSCE; listed as Homo sapiens) | 12.5 | – | – | – | – | – | – | – | – | – | – | MIC (E. coli BL21; 10 h cultivation at 37° C.): 50 µg/mL; MIC (Pseudomonas aeruginosa; [1]): 12.5 µg/mL; MIC (Klebsiella pneumonia; [2]): 25 µg/mL; MIC (Enterobacter cloacae; [3]): 50 µg/mL; MIC (Aeromonas hydrophila; [4]): 25 µg/mL; MIC (Citrobacter diversus; [5]): 12.5 µg/mL; MIC (Moraxella catarrhalis; [6]): 25 µg/mL; MIC (Proteus mirabilis; [7]): 12.5 µg/mL; MIC (Proteus vulgaris; [8]): 25 µg/mL; MIC (Serratia marcescens; [9]): 12.5 µg/mL
